# Test results taken from article PMC5218480 (PLoS ONE, 2017).
# Tested on: MV-4-11 cells
# Experiment: Gene expression microarray analysis (Affymetrix PrimeView) and GSEA
# Type: cell-based, human
# Set-up: RFU PODN (11730768_x_at) / Fold change /veh PODN (11730768_x_at) / RFU LINC00158 (11744669_a_at) / Fold change /veh LINC00158 (11744669_a_at) / RFU DUSP10 (11751237_a_at) / Fold change /veh DUSP10 (11751237_a_at) / RFU ID3 (11757404_x_at) / Fold change /veh ID3 (11757404_x_at) / RFU PLEKHG5 (11737974_s_at) / Fold change /veh PLEKHG5 (11737974_s_at) / RFU LRRC4B (11730491_at) / Fold change /veh LRRC4B (11730491_at) / RFU GIMAP4 (11747438_a_at) / Fold change /veh GIMAP4 (11747438_a_at) / RFU KRT8 (11758183_x_at) / Fold change /veh KRT8 (11758183_x_at) / RFU CNN1 (11734310_a_at) / Fold change /veh CNN1 (11734310_a_at) / RFU VPS37D (11726825_at) / Fold change /veh VPS37D (11726825_at) / RFU C10orf10 (11716522_x_at) / Fold change /veh C10orf10 (11716522_x_at) / RFU KIR2DL2 /// KIR2DL4 /// KIR2DL5A /// KIR2DL5B /// KIR2DS1 /// KIR2DS2 /// KIR2DS3 /// KIR2DS4 /// KIR3DL3 /// KIR3DL3 /// KIR3DS1 (11738374_at) / Fold change /veh KIR2DL2 /// KIR2DL4 /// KIR2DL5A /// KIR2DL5B /// KIR2DS1 /// KIR2DS2 /// KIR2DS3 /// KIR2DS4 /// KIR3DL3 /// KIR3DL3 /// KIR3DS1 (11738374_at) / RFU C1QL1 (11718748_at) / Fold change /veh C1QL1 (11718748_at) / RFU TMPRSS4 (11747572_a_at) / Fold change /veh TMPRSS4 (11747572_a_at) / RFU HAMP (11756126_x_at) / Fold change /veh HAMP (11756126_x_at) / RFU RNFT2 (11725882_a_at) / Fold change /veh RNFT2 (11725882_a_at) / RFU NR4A2 (11747474_a_at) / Fold change /veh NR4A2 (11747474_a_at) / RFU ABCC12 (11746883_a_at) / Fold change /veh ABCC12 (11746883_a_at) / RFU TMEM136 (11760407_x_at) / Fold change /veh TMEM136 (11760407_x_at) / RFU CLDN22 /// WWC2 (11732394_at) / Fold change /veh CLDN22 /// WWC2 (11732394_at) / RFU HLA-DPB1 (11760878_x_at) / Fold change /veh HLA-DPB1 (11760878_x_at) / RFU SPINT1 (11716480_a_at) / Fold change /veh SPINT1 (11716480_a_at) / RFU GAP43 (11754022_s_at) / Fold change /veh GAP43 (11754022_s_at) / RFU A4GNT (11735810_at) / Fold change /veh A4GNT (11735810_at) / RFU PRB3 (11715151_x_at) / Fold change /veh PRB3 (11715151_x_at) / RFU TUBB4B (11761932_at) / Fold change /veh TUBB4B (11761932_at) / RFU CAPN14 (11732068_a_at) / Fold change /veh CAPN14 (11732068_a_at) / RFU TMCC2 (11721928_a_at) / Fold change /veh TMCC2 (11721928_a_at) / RFU IRGQ (11745062_a_at) / Fold change /veh IRGQ (11745062_a_at) / RFU FAM174B (11720279_a_at) / Fold change /veh FAM174B (11720279_a_at) / RFU TMPRSS4 (11748680_a_at) / Fold change /veh TMPRSS4 (11748680_a_at) / RFU FAM212B (11763350_a_at) / Fold change /veh FAM212B (11763350_a_at) / RFU PLEKHG5 (11743358_a_at) / Fold change /veh PLEKHG5 (11743358_a_at) / RFU ZSCAN30 (11745921_a_at) / Fold change /veh ZSCAN30 (11745921_a_at) / RFU CMKLR1 (11741424_a_at) / Fold change /veh CMKLR1 (11741424_a_at) / RFU LOC101060620 /// MAPK8IP1 (11723275_at) / Fold change /veh LOC101060620 /// MAPK8IP1 (11723275_at) / RFU SPTSSB (11747773_x_at) / Fold change /veh SPTSSB (11747773_x_at) / RFU PRSS12 (11739890_at) / Fold change /veh PRSS12 (11739890_at) / RFU BIN1 (11741810_x_at) / Fold change /veh BIN1 (11741810_x_at) / RFU WNT11 (11732464_a_at) / Fold change /veh WNT11 (11732464_a_at) / RFU C10orf10 (11716521_a_at) / Fold change /veh C10orf10 (11716521_a_at) / RFU C5orf56 (11738089_at) / Fold change /veh C5orf56 (11738089_at) / RFU CYB561 (11721691_x_at) / Fold change /veh CYB561 (11721691_x_at) / RFU ANKRD19P (11752326_a_at) / Fold change /veh ANKRD19P (11752326_a_at) / RFU OR2T12 /// OR2T33 /// OR2T8 (11738714_s_at) / Fold change /veh OR2T12 /// OR2T33 /// OR2T8 (11738714_s_at) / RFU VCAN (11748164_a_at) / Fold change /veh VCAN (11748164_a_at) / RFU JSRP1 (11732532_at) / Fold change /veh JSRP1 (11732532_at) / RFU KRTAP10-11 (11738290_x_at) / Fold change /veh KRTAP10-11 (11738290_x_at) / RFU MYO3A (11730013_a_at) / Fold change /veh MYO3A (11730013_a_at) / RFU EBF3 (11725865_a_at) / Fold change /veh EBF3 (11725865_a_at) / RFU CAMK2N1 (11719241_x_at) / Fold change /veh CAMK2N1 (11719241_x_at) / RFU C5orf56 (11738088_a_at) / Fold change /veh C5orf56 (11738088_a_at) / RFU OLFML3 (11715873_a_at) / Fold change /veh OLFML3 (11715873_a_at) / RFU LOC100653217 /// NTM (11731650_a_at) / Fold change /veh LOC100653217 /// NTM (11731650_a_at) / RFU MAPK11 (11762145_a_at) / Fold change /veh MAPK11 (11762145_a_at) / RFU FIZ1 (11724087_x_at) / Fold change /veh FIZ1 (11724087_x_at) / RFU OASL (11726364_x_at) / Fold change /veh OASL (11726364_x_at) / RFU SOX15 (11748057_x_at) / Fold change /veh SOX15 (11748057_x_at) / RFU CD79A (11719716_a_at) / Fold change /veh CD79A (11719716_a_at) / RFU HIST1H1D (11736915_at) / Fold change /veh HIST1H1D (11736915_at) / RFU CASKIN2 (11723855_a_at) / Fold change /veh CASKIN2 (11723855_a_at) / RFU LOC730098 (11760151_x_at) / Fold change /veh LOC730098 (11760151_x_at) / RFU OR4N2 (11742367_at) / Fold change /veh OR4N2 (11742367_at) / RFU PRRT2 (11749266_a_at) / Fold change /veh PRRT2 (11749266_a_at) / RFU SNX32 (11753110_a_at) / Fold change /veh SNX32 (11753110_a_at) / RFU CDHR5 (11726645_a_at) / Fold change /veh CDHR5 (11726645_a_at) / RFU RCAN1 (11760418_a_at) / Fold change /veh RCAN1 (11760418_a_at) / RFU FAM167A (11723789_a_at) / Fold change /veh FAM167A (11723789_a_at) / RFU FAM26E (11764081_at) / Fold change /veh FAM26E (11764081_at) / RFU ISYNA1 (11749810_s_at) / Fold change /veh ISYNA1 (11749810_s_at) / RFU ACY1 (11761880_at) / Fold change /veh ACY1 (11761880_at) / RFU 11764098_at / Fold change /veh 11764098_at / RFU SAMD14 (11745864_x_at) / Fold change /veh SAMD14 (11745864_x_at) / RFU NPB (11741838_a_at) / Fold change /veh NPB (11741838_a_at) / RFU TMPRSS6 (11731388_a_at) / Fold change /veh TMPRSS6 (11731388_a_at) / RFU KRTAP10-2 (11738614_at) / Fold change /veh KRTAP10-2 (11738614_at) / RFU ARHGAP8 /// PRR5-ARHGAP8 (11727945_x_at) / Fold change /veh ARHGAP8 /// PRR5-ARHGAP8 (11727945_x_at) / RFU KRTAP5-7 /// NADSYN1 (11734609_at) / Fold change /veh KRTAP5-7 /// NADSYN1 (11734609_at) / RFU RASL12 (11751679_a_at) / Fold change /veh RASL12 (11751679_a_at) / RFU CDKN2B (11736163_a_at) / Fold change /veh CDKN2B (11736163_a_at) / RFU PRF1 (11729649_at) / Fold change /veh PRF1 (11729649_at) / RFU, ZNF638 /// ZNF638-IT1 / Fold change vs veh, ZNF638 /// ZNF638-IT1 / RFU, PANK3 / Fold change vs veh, PANK3 / RFU, SH3YL1 / Fold change vs veh, SH3YL1 / RFU, ZEB2 / Fold change vs veh, ZEB2 / RFU, NRIP1 / Fold change vs veh, NRIP1 / RFU, PTTG1IP / Fold change vs veh, PTTG1IP / RFU, CAPN2 / Fold change vs veh, CAPN2 / RFU, MED14 / Fold change vs veh, MED14 / RFU, SNORA58 / Fold change vs veh, SNORA58 / RFU, C1orf63 / Fold change vs veh, C1orf63 / RFU, LRRFIP1 / Fold change vs veh, LRRFIP1 / RFU, NDUFAF7 / Fold change vs veh, NDUFAF7 / RFU, SLC12A2 / Fold change vs veh, SLC12A2 / RFU, IBTK / Fold change vs veh, IBTK / RFU, ESF1 / Fold change vs veh, ESF1 / Fold change vs veh, TMEM50B / RFU, TAOK1 / Fold change vs veh, TAOK1 / RFU, ACBD3 / Fold change vs veh, ACBD3 / RFU, TMA16 / Fold change vs veh, TMA16 / RFU, RWDD3 / Fold change vs veh, RWDD3 / RFU, BCAT1 / Fold change vs veh, BCAT1 / RFU, EDEM3 / Fold change vs veh, EDEM3 / RFU, TMEM33 / Fold change vs veh, TMEM33 / RFU, WDR75 / Fold change vs veh, WDR75 / RFU, AHCTF1 / Fold change vs veh, AHCTF1 / RFU, TFRC / Fold change vs veh, TFRC / RFU, ZDHHC17 / Fold change vs veh, ZDHHC17 / RFU, NOM1 / Fold change vs veh, NOM1 / RFU, ARL8B / Fold change vs veh, ARL8B / RFU, ZBTB11 / Fold change vs veh, ZBTB11 / RFU, TAMM41 / Fold change vs veh, TAMM41 / RFU, KIAA1704 /// LOC100996395 / Fold change vs veh, KIAA1704 /// LOC100996395 / RFU, ING1 / Fold change vs veh, ING1 / RFU, TRMT61B / Fold change vs veh, TRMT61B / RFU, FUBP3 / Fold change vs veh, FUBP3 / RFU, TP53 / Fold change vs veh, TP53 / RFU, TNKS2 / Fold change vs veh, TNKS2 / RFU, ZFP14 / Fold change vs veh, ZFP14 / RFU, ACTR2 / Fold change vs veh, ACTR2 / RFU, PPP3R1 / Fold change vs veh, PPP3R1 / RFU, PIK3R1 / Fold change vs veh, PIK3R1 / RFU, HNRNPA1 / Fold change vs veh, HNRNPA1 / RFU, RNF170 / Fold change vs veh, RNF170 / RFU, ZNF28 / Fold change vs veh, ZNF28 / RFU, RNGTT / Fold change vs veh, RNGTT / RFU, OGT / Fold change vs veh, OGT / RFU, BRD1 / Fold change vs veh, BRD1 / RFU, MARS / Fold change vs veh, MARS / RFU, ZNF655 / Fold change vs veh, ZNF655 / RFU, FAHD1 / Fold change vs veh, FAHD1 / RFU, BDP1 / Fold change vs veh, BDP1 / RFU, LRRCC1 / Fold change vs veh, LRRCC1 / RFU, ARID1A / Fold change vs veh, ARID1A / RFU, ZNF146 / Fold change vs veh, ZNF146 / RFU, ZNF330 / Fold change vs veh, ZNF330 / RFU, GPN3 / Fold change vs veh, GPN3 / RFU, C9orf123 / Fold change vs veh, C9orf123 / RFU, N4BP2L2 / Fold change vs veh, N4BP2L2 / RFU, ARFIP1 / Fold change vs veh, ARFIP1 / RFU, FAM179B / Fold change vs veh, FAM179B / RFU, BCL10 / Fold change vs veh, BCL10 / RFU, UHRF1BP1L / Fold change vs veh, UHRF1BP1L / RFU, BET1 / Fold change vs veh, BET1 / RFU, CNOT2 / Fold change vs veh, CNOT2 / RFU, ZNF268 / Fold change vs veh, ZNF268 / Fold change vs veh, ZNF507 / RFU, DGCR2 / Fold change vs veh, DGCR2 / RFU, WDSUB1 / Fold change vs veh, WDSUB1 / Fold change vs veh, HSP90B1 /// MIR3652 / RFU, ADSS / Fold change vs veh, ADSS / RFU, GK / Fold change vs veh, GK / RFU, ZNF148 / Fold change vs veh, ZNF148 / RFU, TAF9 / Fold change vs veh, TAF9 / RFU, SLC1A5 / Fold change vs veh, SLC1A5 / RFU, SLMO2 / Fold change vs veh, SLMO2 / RFU, ABCC4 / Fold change vs veh, ABCC4 / RFU, LOC101060439 /// RAP1B / Fold change vs veh, LOC101060439 /// RAP1B / RFU, RFX7 / Fold change vs veh, RFX7 / RFU, GTPBP10 / Fold change vs veh, GTPBP10 / RFU, CNEP1R1 / Fold change vs veh, CNEP1R1 / RFU, BIVM-ERCC5 /// ERCC5 / Fold change vs veh, BIVM-ERCC5 /// ERCC5 / RFU, ILF3 / Fold change vs veh, ILF3 / RFU 11762660_at / Fold change /veh 11762660_at / RFU VCAN (11757783_s_at) / Fold change /veh VCAN (11757783_s_at) / RFU DDX43 (11728927_at) / Fold change /veh DDX43 (11728927_at) / RFU KRT8 (11758188_x_at) / Fold change /veh KRT8 (11758188_x_at) / RFU NKD1 (11759106_at) / Fold change /veh NKD1 (11759106_at) / RFU SRD5A1 (11742802_a_at) / Fold change /veh SRD5A1 (11742802_a_at) / RFU TPSAB1 /// TPSB2 (11721975_s_at) / Fold change /veh TPSAB1 /// TPSB2 (11721975_s_at) / RFU GSTM3 (11746129_a_at) / Fold change /veh GSTM3 (11746129_a_at) / RFU IL23R (11737362_x_at) / Fold change /veh IL23R (11737362_x_at) / RFU TMEM51 (11727254_a_at) / Fold change /veh TMEM51 (11727254_a_at) / RFU PIWIL2 (11732686_x_at) / Fold change /veh PIWIL2 (11732686_x_at) / RFU ORM1 (11744905_x_at) / Fold change /veh ORM1 (11744905_x_at) / RFU CCDC152 (11743942_at) / Fold change /veh CCDC152 (11743942_at) / RFU ECM1 (11717891_a_at) / Fold change /veh ECM1 (11717891_a_at) / RFU IL23R (11748794_a_at) / Fold change /veh IL23R (11748794_a_at) / RFU TNFAIP8L3 (11732012_x_at) / Fold change /veh TNFAIP8L3 (11732012_x_at) / RFU MBOAT4 (11741988_at) / Fold change /veh MBOAT4 (11741988_at) / RFU 11764193_at / Fold change /veh 11764193_at / RFU TMEM53 (11763286_at) / Fold change /veh TMEM53 (11763286_at) / RFU MAGEB2 (11727129_at) / Fold change /veh MAGEB2 (11727129_at) / RFU TMEM200A (11744735_a_at) / Fold change /veh TMEM200A (11744735_a_at) / RFU CCDC152 (11751479_a_at) / Fold change /veh CCDC152 (11751479_a_at) / RFU FAM211A (11726209_a_at) / Fold change /veh FAM211A (11726209_a_at) / RFU RGS16 (11746705_a_at) / Fold change /veh RGS16 (11746705_a_at) / RFU VCAN (11755009_s_at) / Fold change /veh VCAN (11755009_s_at) / RFU RHOB (11743442_s_at) / Fold change /veh RHOB (11743442_s_at) / RFU RGS16 (11720943_a_at) / Fold change /veh RGS16 (11720943_a_at) / RFU RGS16 (11720944_at) / Fold change /veh RGS16 (11720944_at) / RFU, VPS4B / Fold change vs veh, VPS4B / RFU, CREB1 / Fold change vs veh, CREB1 / RFU, DNAJC13 / Fold change vs veh, DNAJC13 / RFU, GNAQ / Fold change vs veh, GNAQ / RFU, CDK5R1 / Fold change vs veh, CDK5R1 / RFU, ZRANB3 / Fold change vs veh, ZRANB3 / RFU, CUL4A / Fold change vs veh, CUL4A / RFU, CCNY / Fold change vs veh, CCNY / RFU, UFL1 / Fold change vs veh, UFL1 / RFU, COG3 / Fold change vs veh, COG3 / RFU, DIAPH2 / Fold change vs veh, DIAPH2 / RFU, SKA2 / Fold change vs veh, SKA2 / RFU, AFF3 / Fold change vs veh, AFF3 / RFU, LMF1 / Fold change vs veh, LMF1 / RFU, IPO11 / Fold change vs veh, IPO11 / RFU, DFFB / Fold change vs veh, DFFB / RFU, FOXP1 / Fold change vs veh, FOXP1 / RFU, CARD8 / Fold change vs veh, CARD8 / RFU, STRN3 / Fold change vs veh, STRN3 / RFU, ADK / Fold change vs veh, ADK / RFU, RASSF2 / Fold change vs veh, RASSF2 / RFU, WIPF1 / Fold change vs veh, WIPF1 / RFU, LARP1B / Fold change vs veh, LARP1B / RFU, RASA1 / Fold change vs veh, RASA1 / RFU, RB1 / Fold change vs veh, RB1 / RFU, PPFIA1 / Fold change vs veh, PPFIA1 / RFU, MAT2A / Fold change vs veh, MAT2A / RFU, CCT5 / Fold change vs veh, CCT5 / RFU, WDR92 / Fold change vs veh, WDR92 / RFU, CUX1 / Fold change vs veh, CUX1 / RFU, TTC7A / Fold change vs veh, TTC7A / RFU, TMEM135 / Fold change vs veh, TMEM135 / RFU, DEPTOR / Fold change vs veh, DEPTOR / RFU, CPM / Fold change vs veh, CPM / RFU, DNAJB6 / Fold change vs veh, DNAJB6 / RFU, CACNA2D3 / Fold change vs veh, CACNA2D3 / RFU, DTX4 / Fold change vs veh, DTX4 / RFU, TFCP2 / Fold change vs veh, TFCP2 / RFU, GMCL1 /// GMCL1P1 / Fold change vs veh, GMCL1 /// GMCL1P1 / RFU, AEBP2 / Fold change vs veh, AEBP2 / RFU, SNHG1 /// SNORD22 /// SNORD25 /// SNORD26 /// SNORD27 /// SNORD28 /// SNORD29 /// SNORD31 / Fold change vs veh, SNHG1 /// SNORD22 /// SNORD25 /// SNORD26 /// SNORD27 /// SNORD28 /// SNORD29 /// SNORD31 / Fold change (Aza/veh), C12orf56 (ProbeSet 11735607_a_at) / Fold change (ACY-1035/veh), C12orf56 (ProbeSet 11735607_a_at) / Fold change (Aza/veh), FGFR1OP (ProbeSet 11751329_s_at) / Fold change (ACY-1035/veh), FGFR1OP (ProbeSet 11751329_s_at) / Fold change (Aza/veh), VPS36 (ProbeSet 11739960_a_at) / Fold change (ACY-1035/veh), VPS36 (ProbeSet 11739960_a_at) / RFU SYPL1 (11715823_x_at) / Fold change /veh SYPL1 (11715823_x_at) / RFU IGFBP7 (11715501_s_at) / Fold change /veh IGFBP7 (11715501_s_at) / RFU REEP3 (11722064_at) / Fold change /veh REEP3 (11722064_at) / RFU IGLL1 (11728026_x_at) / Fold change /veh IGLL1 (11728026_x_at): dose or concentration left out as unconfirmed
# Details: ProbeSet 11716331_a_at; LIST D
smiles,measurement,value
Nc1ccc(-c2cccs2)cc1NC(=O)c1ccc2c(c1)cc(C1CC1)n2CCN1CCOCC1 [ACY-1035],"Fold change vs veh, DNAJB6",0.86
